Tested on: TNCB-induced atopic dermatitis in mice ears
Assay: TNCB-induced atopic dermatitis in mice: ear thickness, ear weight, ear appearance, histopathology
Assay type: in vivo, BALB/c mice
Settings: for Pathological slice average inflammation degree (average severity of the pathological changes): mice ears, HE staining, after three weeks of daily test substance, scale Grade 1 minimal to Grade 5 extremely severe
Method: The animals used in the experiments were 8-week-old BALB/c mice (purchased from LESCO Biotech), the body weight were 25 to 28 g and were quarantined by veterinarians for one week before entering the breeding room. The animals were divided into 9 groups, 3 in each group, a total of 27 mices. The temperature of the breeding room was set at 21±2° C., the humidity was set at 30 to 70%, and the environment was set for 12/12 hour light-dark cycle with unlimited supply of food and water.
In the animal experiments, 2-chloro-1,3,5-trinitrobezene (TNCB) was used to induce atopic dermatitis in mice and acetone was used as the solvent to prepare 1% of TNCB which was applied to mice ears (once every 2 days, the volume was 4 ml/kg) one week prior to testings. […] In addition, for those groups that were simultaneously provided with test ointments and test oral substances, the oral dose was 60 mg/kg and the volume was 10 ml/kg. When TNCB and the test substance were given on the same day, in order to reduce the effect of interactions between each other, TNCB and test substance were given at least 1 hour apart. The mangosteen paste of 0.5%, 1%, 2%, 3%, 5% respectively contained 20 mg/kg, 40 mg/kg, 80 mg/kg, 120 mg/kg and 200 mg/kg of extract of mangosteen rind.
Changes in body weight and ear thickness of the mice were monitored twice weekly. Blood of all experimental animals were collected before TNCB induction, after the induction and before the test substance was given and when being sacrificed. After the blood was centrifuged at 3000 rpm for 30 minutes at 4° C., serum samples were obtained and stored.
All animals were sacrificed at the end of the third week after the test substance was given. Mice ears were removed, photographed and stored in 10% of formalin solution for histopathological observation. HE staining was used for the pathological observation (conducted by the National Laboratory Animal Center).
Data are expressed as means±standard deviation […] and Student's t-test was used to compare the differences among treatment groups. Asterisks indicate significant differences, *p<0.05; **p<0.01; ***p<0.001.

[1] = inner rind versus outer rind extract experiment (4%)

For `CC(=O)OCC(=O)[C@@]1(O)CC[C@H]2[C@@H]3CCC4=CC(=O)CC[C@]4(C)[C@H]3[C@@H](O)C[C@@]21C` [1% Hydrocortisone Acetate, hydrocortisone acetate], the “Inhibition rate, ear thickness” value (degree of swelling of mice ears, compared with the model group, mangosteen paste dose series) was 52.7%, the “Ear appearance after being sacrificed” value (ears removed at end of experiment (FIG. 4)) was “intact ear contour” and the “Inhibition rate, ear weight” value (ears weighed after sacrifice, compared with the model group, mangosteen paste dose series) was 82.4%. For the same compound, the “Inhibition rate (%), ear thickness” value [1] was 50.75%, the “Inhibition rate (%), ear weight” value [1] was 68.91% and the “Pathological slice average inflammation degree (average severity of the pathological changes)” value was 3 ± 0 Grade. For the same compound, the “Pathological slice average inflammation degree (average severity of the pathological changes)” value (listed as 1% hydrocortisone acetate) was 3 Grade.

— US10383906B2, “Method for treating skin diseases with mangosteen rind extract” (XANTHO BIOTECHNOLOGY CO., LTD, priority 2015, dated 2019)
